Data as given in patent US20030225152A1, “3-(Arylamino)methylene-1, 3-dihydro-2h-indol-2-ones as kinase inhibitors” (priority 2001, published 2003).

What was measured:
[1] = test system: VEGF induced increases in intracellular calcium levels in HUVEC (human umbilical vein endothelial cells); assay: VEGF Stimulated Ca++ Signal in vitro (FLIPR); assay type: cell-based; details: VEGF 5 ng/mL; for IC50: 0.01 to 10.0 μM
Summary of the method: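 HUVEC loaded with Fluo-4 (45 min, 37° C.), washed, then pre-incubated 30 min with compound (10 μM single dose or 0.01–10.0 μM; 0.1% DMSO) before 5 ng/mL VEGF. Fluorescence at 516 nm read by FLIPR; IC50 from % inhibition of max-min VEGF response.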

[2] = target: T1, cytoplasmic domain of the human VEGF receptor (VEGFR-2) (Homo sapiens, UniProt P35968); assay: KDR Assay; assay type: biochemical; details: His-VEGFR-2; 3.6 μM ATP
T1 construct: The cytoplasmic domain of the human VEGF receptor (VEGFR-2) was expressed as a Histidine-tagged fusion protein; Histidine tag
Summary of the method: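 His-tagged human VEGFR-2 cytoplasmic domain from baculovirus-infected insect cells, acting on poly-Glu-Tyr (4:1)-coated plates with 3.6 μM ATP in Hepes pH 7.4 with MgCl2/MnCl2 and 5% final DMSO, 10 min at 25 °C. Phosphotyrosine detected by peroxidase-conjugated antibody ELISA at 492 nm; IC50 from blank-subtracted OD versus concentration.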

[3] = test system: VEGF-induced EBD extravasation; assay: VEGF-induced Dermal Extravasation in Guinea Pig (Miles Assay); assay type: in vivo
Description: VEGF-induced Dermal Extravasation in Guinea Pig (Miles Assay). Male Hartley guinea pigs (300-600 g) were anesthetized with isofluorane, sheared, and given a single dose of drug or the respective vehicle. The guinea pigs were dosed orally unless indicated otherwise in Table 3. Ten minutes prior to the end of drug treatment, guinea pigs were anesthetized with isofluorane, and 0.5% Evans blue dye (EBD) in PBS (13-15 mg/kg dose of EBD) was injected intravenously. After 5 minutes, triplicate intradermal injections of 100 ng rhVEGF165 in 100 μl PBS and of 100 μl PBS alone were administered on the flank. After 20 minutes, each animal was euthanized with Pentosol, and the skin containing the intradermal injection sites was removed for image analysis.
Using an analog video camera coupled to a PC, an image of each trans-illuminated skin sample was captured, and the integrated optical density of each injection site was measured using ImagePro 4. For each skin sample, the difference between the mean optical density of the VEGF sites and mean optical density of the PBS sites is the measure of VEGF-induced EBD extravasation in that animal. These measured values were averaged per study group to determine the mean VEGF-induced EBD extravasation for each experimental condition, and the group means were then compared to assess inhibition of VEGF-induced EBD extravasation in the drug-treated groups relative to the vehicle-treated controls.
(§1) To determine the dose required for 50% inhibition (ID50), the percent inhibition data was plotted as a function of oral dose, using the ‘best-fit’ analysis within MicroSoft Excel software. The ID50 value was verified visually by using the plotted data (horizontal line from 50% y value, at intersection with best-fit line drop vertical line to x axis (dose)).

[4] = test system: Laser-induced Choroidal Neovascularization (CNV); assay: Laser-induced Choroidal Neovascularization (CNV) in Rat (CNV Assay); assay type: in vivo
Description: Laser-induced Choroidal Neovascularization (CNV) in Rat (CNV Assay). CNV was induced and quantified in this model as previously described (Edelman and Castro. Exp. Eye Res. 2000; 71:523-533). On day 0, male Brown Norway rats (200-300 g) were anesthetized with 100 mg/kg Ketamine and 10 mg/kg Xylazine, and pupils were dilated with 1% Tropicamide. Using the blue-green setting of a Coherent Novus Argon Laser, 3 laser bums (90 mW for 0.1 s; 100 μm diameter) were given to each eye between the retinal vessels around the optic nerve head. […]
On day 10, rats were sacrificed with 100% CO2, and blood vessels were labeled by vascular perfusion with 10 mg/ml FITC-dextran (MW 2×10^6). Using an epifluorescence microscope (20×) coupled to a spot digital camera and a PC, images were obtained from the flat mounts of the RPE-choroid-sclera from each eye, and the area occupied by hyperfluorescent neovessels within each laser lesion was measured using ImagePro 4 software.
as §1

T1 sequence (P35968 786-1356): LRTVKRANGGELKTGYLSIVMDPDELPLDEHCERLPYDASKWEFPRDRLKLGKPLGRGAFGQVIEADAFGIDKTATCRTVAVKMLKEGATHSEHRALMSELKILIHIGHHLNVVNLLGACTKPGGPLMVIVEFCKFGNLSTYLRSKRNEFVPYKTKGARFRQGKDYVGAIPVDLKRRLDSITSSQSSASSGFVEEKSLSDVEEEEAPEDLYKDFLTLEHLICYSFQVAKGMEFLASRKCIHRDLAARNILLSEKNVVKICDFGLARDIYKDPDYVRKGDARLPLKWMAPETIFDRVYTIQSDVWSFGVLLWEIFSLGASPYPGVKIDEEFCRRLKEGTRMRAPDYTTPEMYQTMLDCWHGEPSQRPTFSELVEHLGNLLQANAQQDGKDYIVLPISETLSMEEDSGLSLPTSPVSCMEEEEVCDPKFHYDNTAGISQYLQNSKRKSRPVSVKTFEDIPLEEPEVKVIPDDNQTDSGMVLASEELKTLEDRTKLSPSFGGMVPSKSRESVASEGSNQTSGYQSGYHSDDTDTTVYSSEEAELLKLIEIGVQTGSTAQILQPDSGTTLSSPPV

SMILES	inhibition at 10 µM ([1]; Homo sapiens) [%]	IC50 [2] [nM]	Miles Assay % inhibition ([3]; 75 mg/kg, PEG400, oral) [%]	Miles Assay % inhibition ([3]; 75 mg/kg, corn oil, oral) [%]	CNV Assay % inhibition ([4]; 80 mg/kg (sid), corn oil, oral) [%]	further results
O=C1Nc2ccccc2C1=CNc1ccc(N2CCOCC2)cc1 [Example 40]	96.7	250	100	47	–	Miles Assay % inhibition ([3]; 1 mg/kg, I.V. bolus in 20% methyl cyclodextrin, preincubation period 0.5 h): 0%; Miles Assay % inhibition ([3]; 1 mg/kg, I.V. bolus in 20% methyl cyclodextrin, preincubation period 1 h): 0%; Miles Assay % inhibition ([3]; 1 mg/kg, I.V. bolus in 20% methyl cyclodextrin, preincubation period 2 h): 0%; Miles Assay % inhibition ([3]; 10 mg/kg, 43% methyl cyclodextrin, preincubation period 1 h): 6%; Miles Assay % inhibition ([3]; 75 mg/kg, homogenized corn oil, oral): 40%; Miles Assay % inhibition ([3]; 75 mg/kg, micronized corn oil, oral): 52%; Miles Assay ID50 ([3]; oral dose for 50% inhibition): 18 mg/kg; CNV Assay % inhibition ([4]; 20 mg/kg (bid), PEG400, oral): 95%; CNV Assay % inhibition ([4]; 20 mg/kg (sid), PEG400, oral): 54%; CNV Assay % inhibition ([4]; 40 mg/kg (sid), PEG400, oral): 96%; CNV Assay % inhibition ([4]; 50 mg/kg (bid), corn oil, oral): 92%; CNV Assay % inhibition (toxicity noted) ([4]; 100 mg/kg (sid), PEG400, oral): toxic; CNV Assay % inhibition ([4]; 100 mg/kg (sid), corn oil, oral): 74%; CNV Assay ID50 (mg/kg) ([4]; oral dose for 50% inhibition): ˜20 mg/kg
CC1CN(c2ccc(NC=C3C(=O)Nc4ccccc43)cc2)CC(C)O1 (centres unmarked) [Example 159, 3-{[4-(2,6-Dimethyl-morpholin-4-yl)-phenylamino]-methylene}-1,3-dihydro-indol-2-one]	97.4	350	91	–	–	IC50 [1]: 580 nM; IC50 ([1]; Homo sapiens): ≤ 1000 nM; CNV Assay % inhibition ([4]; 100 mg/kg (sid), 10% DMAC, 10% NMP, 80% PEG400, oral): 41%
O=C1Nc2ccccc2C1=CNc1ccc(OCCCCN2CCCCC2)cc1 [Example 209, 3-{[4-(4-Piperidin-1-yl-butoxy)-phenylamino]-methylene}-1,3-dihydro-indol-2-one]	98.6	240	79	84	95	–
O=C1Nc2ccccc2C1=CNc1ccc(OCCCN2CCCCC2)cc1 [Example 218, 3-{[4-(3-Piperidin-1-yl-propoxy)-phenylamino]-methylene}-1,3-dihydro-indol-2-one]	98.1	170	99	97	99	CNV Assay % inhibition ([4]; 9.3 mg/kg (sid), corn oil, oral): 33%; CNV Assay % inhibition ([4]; 38.5 mg/kg (sid), corn oil, oral): 68%; CNV Assay ID50 ([4]; oral dose for 50% inhibition): 17 mg/kg
CCN(CC)CCCOc1ccc(NC=C2C(=O)Nc3cccc(C)c32)cc1 [Example 231, 3-{[4-(3-Diethylamino-propoxy)-phenylamino]-methylene}-4-methyl-1,3-dihydro-indol-2-one]	93.3	70	–	93	85	–
CCN(CC)CCCOc1ccc(NC=C2C(=O)Nc3cc(F)ccc32)cc1 [Example 234, 3-{[4-(3-Diethylamino-propoxy)-phenylamino]-methylene}-6-fluoro-1,3-dihydro-indol-2-one]	96.1	110	–	95	97	CNV Assay % inhibition ([4]; 8.6 mg/kg (sid), corn oil, oral): 18%; CNV Assay % inhibition ([4]; 35 mg/kg (sid), corn oil, oral): 76%; CNV Assay ID50 ([4]; oral dose for 50% inhibition): 19 mg/kg
O=C1Nc2ccccc2C1=CNc1ccc(NCCN2CCOCC2)cc1 [Example 235, 3-{[4-(2-Morpholin-4-yl-ethylamino)-phenylamino]-methylene}-1,3-dihydro-indol-2-one]	98.2	240	–	99	–	CNV Assay % inhibition ([4]; 40 mg/kg (sid), corn oil, oral): 63%
O=C1Nc2cc(F)ccc2C1=CNc1ccc(OCCCN2CCCCC2)cc1 [Example 239, 6-Fluoro-3-{[4-(3-piperidin-1-yl-propoxy)-phenylamino]-methylene}-1,3-dihydro-indol-2-one]	97.7	150	–	100	–	CNV Assay % inhibition ([4]; 40 mg/kg (sid), corn oil, oral): 56%
